How the values were obtained:
spanishneedles = experiment: Test F preemergence test; type: in vivo, Bidens bipinnata; conditions: scale 0 to 100
Excerpt: (§1) Seeds of plant species selected from bermudagrass (Cynodon dactylon), Surinam grass (Brachiaria decumbens), large crabgrass (Digitaria sanguinalis), green foxtail (Setaria viridis), goosegrass (Eleusine indica), johnsongrass (Sorghum halepense), kochia (Kochia scoparia), pitted morningglory (Ipomoea lacunosa), purple nutsedge (Cyperus rotundus), common ragweed (Ambrosia elation), mustard (Brassica nigra), guineagrass (Panicum maximum), […] (Paspalum dilatatum), barnyardgrass (Echinochloa crus-galli), southern sandbur (Cenchrus echinatus), common sowthistle (Sonchus oleraceous), prickly […] spinosa), Italian ryegrass (Lolium multiflorum), common purslane (Portulaca oleracea), broadleaf signalgrass (Brachiaria platyphylla), common groundsel (Senecio vulgaris), common chickweed (Stellaria media), Virginia dayflower (Commelina virginica), annual bluegrass (Poa annua), naked crabgrass (Digitaria nuda), […] cochinchinensis), quackgrass (Elytrigia repens), Canada horseweed (Conyza canadensis), field bindweed (Convolvulus arvensis), […] (Bidens bipinnata), common mallow (Malva sylvestris), Russian thistle (Salsola kali), and sugarcane (Saccharum officinarum) were planted and treated preemergence with test chemicals formulated in a non-phytotoxic solvent mixture which included a surfactant. At a different time, sugarcane was treated with postemergence applications of some of the test chemicals formulated in the same manner. Plants were approximately 3- to 4-leaf stage for the postemergence treatments. Treated plants and controls were maintained in a greenhouse for 14 to 21 days, after which time all species were compared to controls and visually evaluated. […] A dash (-) response means no test result.

Canada horseweed = experiment: Test F preemergence test; type: in vivo, Conyza canadensis; conditions: scale 0 to 100
Excerpt: as §1

common sowthistle = experiment: Test F preemergence test; type: in vivo, Sonchus oleraceous; conditions: scale 0 to 100
Excerpt: as §1

common chickweed = experiment: Test F preemergence test; type: in vivo, Stellaria media; conditions: scale 0 to 100
Excerpt: as §1

winter barley = experiment: Test C postemergence test; type: in vivo, Hordeum vulgare; conditions: for Plant response rating, Barley: scale 0 to 100, 0 no effect, 100 complete control
Description: (§2) At the same time, plants selected from these crop and weed species and also winter barley (Hordeum vulgare), canarygrass (Phalaris minor), and chickweed (Stellaria media) were treated with postemergence applications of some of the test chemicals formulated in the same manner. Plants ranged in height from 2 to 18 cm (1- to 4-leaf stage) for postemergence treatments. […] At time of treatment, test pots were flooded to 3 cm above the soil surface, treated by application of test compounds directly to the paddy water, and then maintained at that water depth for the duration of the test. Treated plants and controls were maintained in a greenhouse for 13 to 15 days, after which time all species were compared to controls and visually evaluated. […] A dash (-) response means no test result.

canarygrass = experiment: Test C postemergence test; type: in vivo, Phalaris minor; conditions: for Plant response rating, Canarygrass: scale 0 to 100, 0 no effect, 100 complete control
Description: as §2

chickweed = experiment: Test C postemergence test; type: in vivo, Stellaria media; conditions: for Plant response rating, Chickweed: scale 0 to 100, 0 no effect, 100 complete control
Description: as §2

windgrass = experiment: Test C pre-/postemergence test; type: in vivo, Apera spica-venti; conditions: Postemergence; for Plant response rating, Windgrass: scale 0 to 100, 0 no effect, 100 complete control
Excerpt: Seeds of plant species selected from blackgrass (Alopecurus myosuroides), downy brome (Bromus tectorum), green foxtail (Setaria viridis), Italian ryegrass (Lolium multiflorum), wheat (Triticum aestivum), wild oat (Avena fatua), catchweed bedstraw (Galium aparine), Russian thistle (Salsola kali), […] (Cynodon dactylon), Surinam grass (Brachiaria decumbens), cocklebur (Xanthium strumarium), corn (Zea mays), crabgrass (Digitaria sanguinalis), woolly cupgrass (Eriochloa villosa), giant foxtail (Setaria faberii), Goosegrass (Eleusin indica), johnsongrass (Sorghum halepense), kochia (Kochia scoparia), lambsquarters (Chenopodium album), morningglory (Ipomoea coccinea), eastern black nightshade (Solanum ptycanthum), yellow nutsedge (Cyperus esculentus), pigweed (Amaranthus retroflexus), common ragweed (Ambrosia elation), soybean (Glycine max), common (oilseed) sunflower (Helianthus annuus), and velvetleaf (Abutilon theophrasti) were planted and treated preemergence with test chemicals formulated in a non-phytotoxic solvent mixture which included a surfactant. At the same time, plants selected from these crop and weed species and also winter barley (Hordeum vulgare), canarygrass (Phalaris minor), and chickweed (Stellaria media) were treated with postemergence applications of some of the test chemicals formulated in the same manner. Plants ranged in height from 2 to 18 cm (1- to 4-leaf stage) for postemergence treatments. […] At time of treatment, test pots were flooded to 3 cm above the soil surface, treated by application of test compounds directly to the paddy water, and then maintained at that water depth for the duration of the test. […] A dash (-) response means no test result.

## Cc1cc[n+]([O-])c(S(=O)(=O)Cc2c(C(F)(F)F)nn(C)c2OCC(F)(F)F)c1 [Compound 31]
spanishneedles; 16 g ai/ha, preemergence
  Plant response rating, Spanishneedles: 0
spanishneedles; Preemergence, 62 g ai/ha
  Plant response rating, Spanishneedles: 100
spanishneedles; Preemergence, 31 g ai/ha
  Plant response rating, Spanishneedles: 100

## Cn1nc(C(F)(F)F)c(C[S+]([O-])c2cccc[n+]2[O-])c1OCC(F)(F)F (racemic) [Compound 28]
spanishneedles; 62 g ai/ha, Preemergence
  Spanishneedles plant response rating: 100
spanishneedles; 125 g ai/ha, preemergence
  Spanishneedles plant response rating: 100
spanishneedles; Preemergence, 31 g ai/ha
  Plant response rating, Spanishneedles: 80

## CCn1nc(C(F)(F)F)c(CS(=O)(=O)c2cccc[n+]2[O-])c1OCC(F)(F)F [Compound 63]
Canada horseweed; 16 g ai/ha, preemergence
  Plant response rating, Horseweed: 0
Canada horseweed; 62 g ai/ha, Preemergence
  Horseweed plant response rating: 98
Canada horseweed; 125 g ai/ha, preemergence
  Horseweed plant response rating: 100
Canada horseweed; Preemergence, 31 g ai/ha
  Plant response rating, Horseweed: 98

## Cn1nc(OC(F)F)c(CS(=O)(=O)c2cccc[n+]2[O-])c1C(F)(F)F [Compound 80]
spanishneedles; 16 g ai/ha, preemergence
  Plant response rating, Spanishneedles: 0
spanishneedles; 125 g ai/ha, preemergence
  Spanishneedles plant response rating: 0
spanishneedles; Preemergence, 62 g ai/ha
  Plant response rating, Spanishneedles: 0
spanishneedles; Preemergence, 31 g ai/ha
  Plant response rating, Spanishneedles: 0
Canada horseweed; 16 g ai/ha, preemergence
  Plant response rating, Horseweed: 0
Canada horseweed; 62 g ai/ha, Preemergence
  Horseweed plant response rating: 100
Canada horseweed; 125 g ai/ha, preemergence
  Horseweed plant response rating: 100
Canada horseweed; Preemergence, 31 g ai/ha
  Plant response rating, Horseweed: 0

## Cc1cc[n+]([O-])c(S(=O)(=O)Cc2c(C(F)(F)F)nn(C)c2Cl)c1 [Compound 19]
Common sowthistle; 62 g ai/ha, Preemergence
  Sowthistle plant response rating: 80
Common sowthistle; 125 g ai/ha, preemergence
  Sowthistle plant response rating: 95
Common sowthistle; Preemergence, 31 g ai/ha
  Plant response rating, Sowthistle: 0
Common chickweed; 62 g ai/ha, Preemergence
  Chickweed plant response rating: 0
Common chickweed; 125 g ai/ha, preemergence
  Chickweed plant response rating: 75
Common chickweed; Preemergence, 16 g ai/ha
  Plant response rating, Chickweed: 0
Common chickweed; Preemergence, 31 g ai/ha
  Plant response rating, Chickweed: 0
Canada horseweed; 62 g ai/ha, Preemergence
  Horseweed plant response rating: 0
Canada horseweed; 125 g ai/ha, preemergence
  Horseweed plant response rating: 100
Canada horseweed; Preemergence, 16 g ai/ha
  Plant response rating, Horseweed: 0
Canada horseweed; Preemergence, 31 g ai/ha
  Plant response rating, Horseweed: 0

## Cn1nc(C(F)(F)F)c(C[S+]([O-])c2ccc(Cl)c[n+]2[O-])c1OCC(F)F (centres unmarked) [Compound 85]
Common sowthistle; 16 g ai/ha, preemergence
  Plant response rating, Sowthistle: 0
Common sowthistle; 125 g ai/ha, preemergence
  Sowthistle plant response rating: 100
Common sowthistle; Preemergence, 62 g ai/ha
  Plant response rating, Sowthistle: 100
Common sowthistle; Preemergence, 31 g ai/ha
  Plant response rating, Sowthistle: 0
spanishneedles; 16 g ai/ha, preemergence
  Plant response rating, Spanishneedles: 50
spanishneedles; 125 g ai/ha, preemergence
  Spanishneedles plant response rating: 100
spanishneedles; Preemergence, 62 g ai/ha
  Plant response rating, Spanishneedles: 100
spanishneedles; Preemergence, 31 g ai/ha
  Plant response rating, Spanishneedles: 50
Canada horseweed; 16 g ai/ha, preemergence
  Plant response rating, Horseweed: 25
Canada horseweed; 125 g ai/ha, preemergence
  Horseweed plant response rating: 100
Canada horseweed; Preemergence, 62 g ai/ha
  Plant response rating, Horseweed: 100
Canada horseweed; Preemergence, 31 g ai/ha
  Plant response rating, Horseweed: 100

## [O-][n+]1cc(Cl)ccc1[S+]([O-])Cc1c(C(F)(F)F)nn(CC(F)(F)F)c1Cl (centres unmarked) [Compound 47]
Winter barley; 31 g ai/ha
  Plant response rating (0 to 100), Barley: 0
Winter barley; 62 g ai/ha
  Plant response rating, Barley: 0
Winter barley; 125 g ai/ha
  Plant response rating, Barley: 10
Winter barley; 250 g ai/ha
  Plant response rating, Barley: 45
canarygrass; 31 g ai/ha
  Plant response rating (0 to 100), Canarygrass: 0
canarygrass; 62 g ai/ha
  Plant response rating, Canarygrass: 0
canarygrass; 125 g ai/ha
  Plant response rating, Canarygrass: 0
canarygrass; 250 g ai/ha
  Plant response rating, Canarygrass: 40
chickweed; 31 g ai/ha
  Plant response rating (0 to 100), Chickweed: 0
chickweed; 62 g ai/ha
  Plant response rating, Chickweed: 0
chickweed; 125 g ai/ha
  Plant response rating, Chickweed: 0
chickweed; 250 g ai/ha
  Plant response rating, Chickweed: 0
windgrass; 31 g ai/ha
  Plant response rating (0 to 100), Windgrass: 0
windgrass; 62 g ai/ha
  Plant response rating (0 to 100), Windgrass: 0
windgrass; 125 g ai/ha
  Plant response rating, Windgrass: 95
windgrass; 250 g ai/ha
  Plant response rating, Windgrass: 98

## CC(Oc1c(C[S+]([O-])c2ccc(Cl)c[n+]2[O-])c(C(F)(F)F)nn1C)C(F)(F)F (centres unmarked) [Compound 87]
Common chickweed; 16 g ai/ha, preemergence
  Plant response rating, Chickweed: 0
Common chickweed; 125 g ai/ha, preemergence
  Chickweed plant response rating: 100
Common chickweed; Preemergence, 62 g ai/ha
  Plant response rating, Chickweed: 100
Common chickweed; Preemergence, 31 g ai/ha
  Plant response rating, Chickweed: 100
spanishneedles; 16 g ai/ha, preemergence
  Plant response rating, Spanishneedles: 0
spanishneedles; 125 g ai/ha, preemergence
  Spanishneedles plant response rating: 100
spanishneedles; Preemergence, 62 g ai/ha
  Plant response rating, Spanishneedles: 100
spanishneedles; Preemergence, 31 g ai/ha
  Plant response rating, Spanishneedles: 0

## Cn1nc(C(F)(F)C(F)(F)F)c(C[S+]([O-])c2cccc[n+]2[O-])c1OCC(F)(F)F (centres unmarked) [Compound 79]
Winter barley; 31 g ai/ha
  Plant response rating (0 to 100), Barley: 0
Winter barley; 62 g ai/ha
  Plant response rating (0 to 100), Barley: 0
Winter barley; 125 g ai/ha
  Plant response rating, Barley: 0
Winter barley; 250 g ai/ha
  Plant response rating, Barley: 0
canarygrass; 31 g ai/ha
  Plant response rating (0 to 100), Canarygrass: 0
canarygrass; 62 g ai/ha
  Plant response rating (0 to 100), Canarygrass: 0
canarygrass; 125 g ai/ha
  Plant response rating, Canarygrass: 0
canarygrass; 250 g ai/ha
  Plant response rating, Canarygrass: 0
chickweed; 31 g ai/ha
  Plant response rating (0 to 100), Chickweed: 70
chickweed; 62 g ai/ha
  Plant response rating (0 to 100), Chickweed: 100
chickweed; 125 g ai/ha
  Plant response rating, Chickweed: 100
chickweed; 250 g ai/ha
  Plant response rating, Chickweed: 100
windgrass; 31 g ai/ha
  Plant response rating (0 to 100), Windgrass: 60
windgrass; 62 g ai/ha
  Plant response rating (0 to 100), Windgrass: 100
windgrass; 125 g ai/ha
  Plant response rating, Windgrass: 100
windgrass; 250 g ai/ha
  Plant response rating, Windgrass: 100

## Cn1nc(C(F)(F)F)c(CS(=O)(=O)c2cccc[n+]2[O-])c1OCC(F)(F)F [Compound 29]
spanishneedles; 62 g ai/ha, Preemergence
  Spanishneedles plant response rating: 0
spanishneedles; 125 g ai/ha, preemergence
  Spanishneedles plant response rating: 25
spanishneedles; Preemergence, 31 g ai/ha
  Plant response rating, Spanishneedles: 0

## CC(Oc1c(C[S+]([O-])c2cccc[n+]2[O-])c(C(F)(F)F)nn1C)C(F)(F)F (centres unmarked) [Compound 77]
Common sowthistle; 16 g ai/ha, preemergence
  Plant response rating, Sowthistle: 0
Common sowthistle; 125 g ai/ha, preemergence
  Sowthistle plant response rating: 50
Common sowthistle; Preemergence, 31 g ai/ha
  Plant response rating, Sowthistle: 0
Canada horseweed; 16 g ai/ha, preemergence
  Plant response rating, Horseweed: 0
Canada horseweed; 62 g ai/ha, Preemergence
  Horseweed plant response rating: 98
Canada horseweed; 125 g ai/ha, preemergence
  Horseweed plant response rating: 100
Canada horseweed; Preemergence, 31 g ai/ha
  Plant response rating, Horseweed: 50

## CC(Oc1c(CS(=O)(=O)c2cccc[n+]2[O-])c(C(F)(F)F)nn1C)C(F)(F)F (centres unmarked) [Compound 82]
Winter barley; 31 g ai/ha
  Plant response rating (0 to 100), Barley: 0
Winter barley; 62 g ai/ha
  Plant response rating (0 to 100), Barley: 0
Winter barley; 125 g ai/ha
  Plant response rating, Barley: 0
Winter barley; 250 g ai/ha
  Plant response rating, Barley: 0
canarygrass; 31 g ai/ha
  Plant response rating (0 to 100), Canarygrass: 0
canarygrass; 62 g ai/ha
  Plant response rating (0 to 100), Canarygrass: 0
canarygrass; 125 g ai/ha
  Plant response rating, Canarygrass: 0
canarygrass; 250 g ai/ha
  Plant response rating, Canarygrass: 0
chickweed; 31 g ai/ha
  Plant response rating (0 to 100), Chickweed: 0
chickweed; 62 g ai/ha
  Plant response rating (0 to 100), Chickweed: 0
chickweed; 125 g ai/ha
  Plant response rating, Chickweed: 0
chickweed; 250 g ai/ha
  Plant response rating, Chickweed: 0
windgrass; 31 g ai/ha
  Plant response rating (0 to 100), Windgrass: 70
windgrass; 62 g ai/ha
  Plant response rating (0 to 100), Windgrass: 90
windgrass; 125 g ai/ha
  Plant response rating, Windgrass: 100
windgrass; 250 g ai/ha
  Plant response rating, Windgrass: 100
